From US10005767B2, “Compositions and methods for inhibition of the JAK pathway” (Rigel Pharmaceuticals, Inc., priority 2009, dated 2018)
Like-named read-outs stand apart in the source and are kept apart here.

Tested on: human primary T-cells, IL-2 stimulated proliferation (JAK-1 and JAK-3 dependent; reported as JAK3 activity)
Experiment: Human primary T-cell proliferation stimulated by IL-2 (Example 3)
Format: cell-based
Details: tested under conditions described in Example 3 (IL-2 stimulated human primary T-cell proliferation), read-out: ability to inhibit JAK3 activity, IC50 range (Table V)
Procedure, shortened: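 Peripheral-blood human T-cells pre-activated via TCR/CD28, IL-2-starved overnight, then cultured 72 h at 37 °C with compound in Yssel's medium containing IL-2 (80 U/mL in cell suspension). Proliferation read as viable-cell ATP by CellTiter-Glo luminescence; reduction versus control taken as JAK pathway inhibition.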

Compound	IC50 (Homo sapiens, T-cell) [nM]	IC50 [nM]
COc1ccc(Nc2ncc(C)c(Nc3ccc4oc(=O)[nH]c4c3)n2)cc1C(=O)N1CCN(C)CC1 [Compound I-263, 5-(2-(4-methoxy-3-(4-methylpiperazine-1-carbonyl)phenylamino)-5-methylpyrimidin-4-ylamino)benzo[d]oxazol-2(3H)-one]	< 500	–
[2H]C([2H])([2H])Oc1ccc(Nc2ncc(C)c(Nc3ccc4oc(=O)[nH]c4c3)n2)cc1C [Compound I-264, 5-(2-(3-methyl-4-trideuteromethoxyphenylamino)-5-methylpyrimidin-4-ylamino)benzo[d]oxazol-2(3H)-one]	< 500	–
COc1c(C)cc(Nc2ncc(C)c(Nc3ccc4oc(=O)[nH]c4c3)n2)cc1Cl [Compound I-265, 5-(2-(3-chloro-4-methoxy-5-methylphenylamino)-5-methylpyrimidin-4-ylamino)benzo[d]oxazol-2(3H)-one]	< 500	–
[2H]C([2H])([2H])Oc1cc(C)cc(Nc2ncc(C)c(Nc3ccc4oc(=O)[nH]c4c3)n2)c1 [Compound I-266, 5-(2-(3-methyl-5-trideuteromethoxyphenylamino)-5-methylpyrimidin-4-ylamino)benzo[d]oxazol-2(3H)-one]	< 500	–
COc1cc(Nc2ncc(C)c(Nc3ccc4oc(=O)[nH]c4c3)n2)ccc1C(=O)N(C)C [Compound I-267, 2-methoxy-N,N-dimethyl-4-(5-methyl-4-(2-oxo-2,3-dihydrobenzo[d]oxazol-5-ylamino)pyrimidin-2-ylamino)benzamide]	< 500	–
COc1cc(Nc2ncc(C)c(Nc3ccc4oc(=O)[nH]c4c3)n2)ccc1C(=O)N1CCCC1 [Compound I-268, 5-(2-(3-methoxy-4-(pyrrolidine-1-carbonyl)phenylamino)-5-methylpyrimidin-4-ylamino)benzo[d]oxazol-2(3H)-one]	< 500	–
COc1cc(Nc2ncc(C)c(Nc3ccc4oc(=O)[nH]c4c3)n2)ccc1C(=O)N1CCOCC1 [Compound I-269, 5-(2-(3-methoxy-4-(morpholine-4-carbonyl)phenylamino)-5-methylpyrimidin-4-ylamino)benzo[d]oxazol-2(3H)-one]	< 500	–
COc1cc(Nc2ncc(C)c(Nc3ccc4oc(=O)[nH]c4c3)n2)ccc1C(=O)N1CCN(C)CC1 [Compound I-270, 5-(2-(3-methoxy-4-(4-methylpiperazine-1-carbonyl)phenylamino)-5-methylpyrimidin-4-ylamino)benzo[d]oxazol-2(3H)-one]	< 500	–
COc1ccc(Nc2ncc(C)c(Nc3ccc4oc(=O)[nH]c4c3)n2)cc1C(F)F [Compound I-271, 5-(2-(3-(difluoromethyl)-4-methoxyphenylamino)-5-methylpyrimidin-4-ylamino)benzo[d]oxazol-2(3H)-one]	< 500	–
COc1ccc(Nc2ncc(C)c(Nc3ccc4oc(=O)[nH]c4c3)n2)cc1 [Compound I-272, 5-(2-(4-methoxyphenylamino)-5-methylpyrimidin-4-ylamino)benzo[d]oxazol-2(3H)-one]	< 500	–
COc1cc(Nc2ncc(C)c(Nc3ccc4oc(=O)[nH]c4c3)n2)cc(C(F)F)c1 [Compound I-273, 5-(2-(3-(difluoromethyl)-5-methoxyphenylamino)-5-methylpyrimidin-4-ylamino)benzo[d]oxazol-2(3H)-one]	< 500	–
COc1cc(CF)cc(Nc2ncc(C)c(Nc3ccc4oc(=O)[nH]c4c3)n2)c1 [Compound I-274, 5-(2-(3-(fluoromethyl)-5-methoxyphenylamino)-5-methylpyrimidin-4-ylamino)benzo[d]oxazol-2(3H)-one]	< 500	–
Cc1cnc(Nc2ccc(N3CCC(F)(F)CC3)c(F)c2)nc1Nc1ccc2oc(=O)[nH]c2c1 [Compound I-275, N2-[4-(4,4-difluoropiperidinyl)-3-fluoro]phenyl-5-methyl-N4-(2-oxo-2,3-dihydro-1,3-benzoxazol-5-yl)-2,4-pyrimidinediamine]	–	< 500
Cc1cnc(Nc2ccc(N3CCC(F)(F)CC3)c(C(F)(F)F)c2)nc1Nc1ccc2oc(=O)[nH]c2c1 [Compound I-276, N2-[4-(4,4-difluoropiperidinyl)-3-trifluoromethyl]phenyl-5-methyl-N4-(2-oxo-2,3-dihydro-1,3-benzoxazol-5-yl)-2,4-pyrimidinediamine]	–	< 500
Cc1cnc(Nc2ccc(N3CCC(F)(F)CC3)c(Cl)c2)nc1Nc1ccc2oc(=O)[nH]c2c1 [Compound I-277, N2-[3-chloro-4-(4,4-difluoropiperidinyl)]phenyl-5-methyl-N4-(2-oxo-2,3-dihydro-1,3-benzoxazol-5-yl)-2,4-pyrimidinediamine]	–	< 500
CCN1CCN(c2ccc(Nc3ncc(C)c(Nc4ccc5oc(=O)[nH]c5c4)n3)cc2Cl)CC1 [Compound I-278, N2-[3-chloro-4-(4-ethylpiperazino)]phenyl-5-methyl-N4-(2-oxo-2,3-dihydro-1,3-benzoxazol-5-yl)-2,4-pyrimidinediamine]	–	< 500

Compound	IC50 (Homo sapiens, T-cell) [nM]	IC50 [nM]
Cc1cnc(Nc2ccc(N3CCC(F)(F)CC3)cc2)nc1Nc1ccc2oc(=O)[nH]c2c1 [Compound I-279, N2-[4-(4,4-difluoropiperidinyl)]phenyl-5-methyl-N4-(2-oxo-2,3-dihydro-1,3-benzoxazol-5-yl)-2,4-pyrimidinediamine]	–	< 500
COc1cc(Nc2ncc(C)c(Nc3ccc4oc(=O)[nH]c4c3)n2)cc(OC)c1 [Compound I-280, N2-(3,5-dimethoxy)phenyl-5-methyl-N4-(2-oxo-2,3-dihydro-1,3-benzoxazol-5-yl)-2,4-pyrimidinediamine]	–	< 500
Cc1cnc(Nc2ccc(N3CCN(C)CC3)c(F)c2)nc1Nc1ccc2oc(=O)[nH]c2c1 [Compound I-281, N2-[3-fluoro-4-(4-methylpiperazino)]phenyl-5-methyl-N4-(2-oxo-2,3-dihydro-1,3-benzoxazol-5-yl)-2,4-pyrimidinediamine]	–	< 500
Cc1cnc(Nc2cc(F)c(N3CCN(C)CC3)c(F)c2)nc1Nc1ccc2oc(=O)[nH]c2c1 [Compound I-282, N2-[3,5-difluoro-4-(4-methylpiperazino)]phenyl-5-methyl-N4-(2-oxo-2,3-dihydro-1,3-benzoxazol-5-yl)-2,4-pyrimidinediamine]	–	< 500
CCN1CCN(c2cc(Nc3ncc(C)c(Nc4ccc5oc(=O)[nH]c5c4)n3)ccc2Cl)CC1 [Compound I-283, N2-[4-chloro-3-(4-ethylpiperazino)]phenyl-5-methyl-N4-(2-oxo-2,3-dihydro-1,3-benzoxazol-5-yl)-2,4-pyrimidinediamine]	–	< 500
Cc1cnc(Nc2ccc(Cl)c(N3CC(C)N(C)C(C)C3)c2)nc1Nc1ccc2oc(=O)[nH]c2c1 (centres unmarked) [Compound I-284, N2-[4-chloro-3-(3,4,5-trimethylpiperazino)]phenyl-5-methyl-N4-(2-oxo-2,3-dihydro-1,3-benzoxazol-5-yl)-2,4-pyrimidinediamine]	–	< 500
CCCN1CCN(c2cc(Nc3ncc(C)c(Nc4ccc5oc(=O)[nH]c5c4)n3)ccc2C(F)(F)F)CC1 [Compound I-285, 5-methyl-N4-(2-oxo-2,3-dihydro-1,3-benzoxazol-5-yl)-N2-[3-(4-propylpiperazino)-4-trifluoromethyl]phenyl-2,4-pyrimidinediamine]	–	< 500
Cc1cnc(Nc2cccc(-c3cnco3)c2)nc1Nc1ccc2oc(=O)[nH]c2c1 [Compound I-286, 5-methyl-N2-[3-(1,3-oxazol-5-yl)]phenyl-N4-(2-oxo-2,3-dihydro-1,3-benzoxazol-5-yl)-2,4-pyrimidinediamine]	–	< 500
Cc1cnc(Nc2ccc(Br)cc2)nc1Nc1ccc2oc(=O)[nH]c2c1 [Compound I-288, N2-(4-bromo)phenyl-5-methyl-N4-(2-oxo-2,3-dihydro-1,3-benzoxazol-5-yl)-2,4-pyrimidinediamine]	–	< 500
Cc1cnc(Nc2cccc(-c3ccncc3)c2)nc1Nc1ccc2oc(=O)[nH]c2c1 [Compound I-289, 5-methyl-N4-(2-oxo-2,3-dihydro-1,3-benzoxazol-5-yl)-N2-[3-(pyridin-4-yl)]phenyl-2,4-pyrimidinediamine]	–	< 500
Cc1cnc(Nc2cccc(-c3cccnc3)c2)nc1Nc1ccc2oc(=O)[nH]c2c1 [Compound I-290, 5-methyl-N4-(2-oxo-2,3-dihydro-1,3-benzoxazol-5-yl)-N2-[3-(pyridin-3-yl)]phenyl-2,4-pyrimidinediamine]	–	< 500
Cc1cnc(Nc2ccc(-c3cccnc3)cc2)nc1Nc1ccc2oc(=O)[nH]c2c1 [Compound I-291, 5-methyl-N4-(2-oxo-2,3-dihydro-1,3-benzoxazol-5-yl)-N2-[4-(pyridin-3-yl)]phenyl-2,4-pyrimidinediamine]	–	< 500
COCCOc1cc(Nc2ncc(C)c(Nc3ccc4oc(=O)[nH]c4c3)n2)ccc1OC [Compound I-292, N2-[4-methoxy-3-(2-methoxyethoxy)]phenyl-5-methyl-N4-(2-oxo-2,3-dihydro-1,3-benzoxazol-5-yl)-2,4-pyrimidinediamine]	–	< 500
COc1ccc(Nc2ncc(C)c(Nc3ccc4oc(=O)[nH]c4c3)n2)cc1OCC(=O)NC1CC1 [Compound I-293, N2-[3-(cyclopropylaminocarbonylmethoxy)-4-methoxy]phenyl-5-methyl-N4-(2-oxo-2,3-dihydro-1,3-benzoxazol-5-yl)-2,4-pyrimidinediamine]	–	< 500
Cc1cnc(Nc2ccc(F)c(C#N)c2)nc1Nc1ccc2oc(=O)[nH]c2c1 [Compound I-294, N2-(3-cyano-4-fluoro)phenyl-5-methyl-N4-(2-oxo-2,3-dihydro-1,3-benzoxazol-5-yl)-2,4-pyrimidinediamine]	–	< 500
Cc1cnc(Nc2ccc(-n3cccc3)c(C#N)c2)nc1Nc1ccc2oc(=O)[nH]c2c1 [Compound I-295, N2-[3-cyano-4-(1H-pyrrol-1-yl)]phenyl-5-methyl-N4-(2-oxo-2,3-dihydro-1,3-benzoxazol-5-yl)-2,4-pyrimidinediamine]	–	< 500
